Measured values as given in publication PMC6493465 (Oncotarget, 2019).
Counter-ions that a name gives are not always drawn. Like-named read-outs stand apart in the source and are kept apart here.

Tests used:
[1] = tested on: MCL-1, BCL2L10, survivin and cPARP in MOLM-13 cells; test: Western blot analysis of anti-apoptotic protein expression, MOLM-13; type: cell-based, human; details: MOLM-13, 24-hour treatment; gilteritinib 30 nM, AraC 100 nM, IDR 3 nM, Aza 1000 nM
Procedure: Cell lysates were prepared in radioimmunoprecipitation assay buffer (Thermo Fisher Scientific Inc., Rockford, IL) supplemented with phosphatase (Thermo Fisher Scientific Inc.) and protease inhibitors (Merck, Billerica, MA), electrophoresed on 4%–15% gels, and subsequently transferred to polyvinylidene difluoride membranes. The membranes were blocked using Blocking One (Nacalai Tesque Inc., Kyoto, Japan) for 1 hour and then incubated overnight with primary antibodies to MCL-1, BCL210, cPARP (all from Cell Signaling Technology, Danvers, MA, USA), survivin (R&D Systems, Inc., Minneapolis, MN), and α-actin (MilliporeSigma, Burlington, MA). The membranes were washed with TBS Tween-20 (TBS-T) buffer and incubated with appropriate horseradish peroxidase-linked secondary antibodies (Cell Signaling Technology Japan K.K.) for 1 hour at room temperature. After washing the membranes in TBS-T buffer, enhanced chemiluminescence Western Blotting Detection Reagent ECL-prime (GE Healthcare, Fairfield, CT) was applied. Signals were detected with a charge-coupled device camera (ImageQuant LAS4000; GE Healthcare); signal intensity was quantified using ImageQuant™ TL software (GE Healthcare).

[2] = tested on: MOLM-13 cells; test: Annexin-V staining (apoptosis), MOLM-13; type: cell-based, human; details: single agent: IDR 3 nM, AraC 100 nM or Aza 1000 nM, 48 hours
Procedure: MV4-11 cells were seeded in 12-well plates at a concentration of 2 × 10^5 cells/well and cultured overnight. […] MOLM-13 cells were seeded in 12-well plates at a concentration of 1 × 10^5 cells/well and cultured overnight.
Cells were harvested and incubated with Guava® Nexin Reagent (Merck Millipore Corporation, Billerica, MA). Annexin-V-positive cells were assessed using a Guava® PCA microcytometer (Merck Millipore Corporation); the percentage of annexin-V-positive cells (2000 cells per sample) was analyzed using CytoSoft™ software (Merck Millipore Corporation). Mean percentages of annexin-V-positive cells were derived from three independent experiments.

[3] = Pharmacokinetic assays (plasma and tumor) in nude mice xenografted with MV4-11 cells; type: in vivo, mouse; details: for Cmax / Tmax / AUC / half-life / clearance / Vd: nude, mouse; for AUC: read-out: AUC24; for concentration in tumor fraction versus plasma fraction: xenografted mice; for clearance: read-out: CLtot (converted); for Vd: read-out: Vss
Procedure: Plasma samples were prepared by centrifugation (n=3 per group; one sample in the combination group was excluded due to improper handling). […] These assays were conducted by Astellas Research Technologies Co., Ltd. under the guidance of Analysis & Pharmacokinetics Research Laboratories, Astellas Pharma, Inc., or by Nemoto Science Co., Ltd. (Ibaraki, Japan). […] Body weight and tumor assessments obtained on with MV4-11 cells received one of the following Day −1 were designated as Day 0 (baseline) measurements. combination treatments: 1. […] The percent tumor regression was calculated using the formula: […]

[4] = plasma, ip, 50 mg/kg, AraC in plasma, gilteritinib 3, AraC 50, IDR 0.5 mg/kg
[5] = plasma, ip, AraC in plasma, gilteritinib 0, AraC 50, IDR 0.5 mg/kg
[6] = tumor, ip, 50 mg/kg, AraC in tumor, gilteritinib 3, AraC 50, IDR 0.5 mg/kg
[7] = tumor, ip, AraC in tumor, gilteritinib 0, AraC 50, IDR 0.5 mg/kg
[8] = idarubicin in tumor, with versus without gilteritinib
[9] = tumor, iv, 0.5 mg/kg, idarubicin in tumor, gilteritinib 0, AraC 50, IDR 0.5 mg/kg
[10] = tumor, iv, idarubicin in tumor, gilteritinib 3, AraC 50, IDR 0.5 mg/kg

## Nc1ccn([C@@H]2O[C@H](CO)[C@@H](O)[C@@H]2O)c(=O)n1 [AraC, Cytarabine]
[1]
  expression of MCL-1, BCL2L10, and survivin: little effect
[2]
  mean percentage of annexin V-positive cells: 21.9%
[3]; AraC in plasma, with versus without gilteritinib
  AUC24 ratio: 0.32
[3]; AraC in tumor, gilteritinib 0, AraC 50, IDR 0.5 mg/kg
  AUC24: 7968 ng·h/g
[3]; AraC in tumor, with versus without gilteritinib
  AUC24 ratio: 1.13
[3]; [4]
  Cmax: 18000 ng/mL
  Tmax: 0.083 h
  AUC: 9960 ng·h/mL
[3]; [5]
  Cmax: 28700 ng/mL
  Tmax: 0.25 h
  AUC: 31600 ng·h/mL
[3]; [6]
  Cmax: 1060 ng/g
  Tmax: 2 h
[3]; [7]
  Cmax: 904 ng/g
  Tmax: 2 h
[3]
  concentration in tumor fraction versus plasma fraction: higher in the plasma fraction

## CC(=O)[C@]1(O)Cc2c(O)c3c(c(O)c2[C@@H](O[C@H]2C[C@H](N)[C@H](O)[C@H](C)O2)C1)C(=O)c1ccccc1C3=O [IDR, Idarubicin hydrochloride]
[1]
  expression of MCL-1, BCL2L10, and survivin: little effect
[2]
  mean percentage of annexin V-positive cells: 36.6%
[3]; idarubicin in plasma, with versus without gilteritinib
  AUC24 ratio: 1.23
[3]; idarubicin in tumor, gilteritinib 0, AraC 50, IDR 0.5 mg/kg
  AUC24: 4491 ng·h/g
[3]; idarubicin in tumor, gilteritinib 3, AraC 50, IDR 0.5 mg/kg
  AUC24: 4855 ng·h/g
[3]; [8]
  AUC24 ratio: 1.08
  Cmax ratio: 1.11
[3]; plasma, iv
  half-life: 2.24 h
  clearance: 172 mL/min/kg
  Vd: 31.5 L/kg
[3]; plasma, iv, 0.5 mg/kg
  half-life: 1.49 h
  clearance: 217 mL/min/kg
  Vd: 26.7 L/kg
[3]; plasma, iv, 0.5 mg/kg, idarubicin in plasma, gilteritinib 0, AraC 50, IDR 0.5 mg/kg
  AUC: 63.3 ng·h/mL
[3]; plasma, iv, idarubicin in plasma, gilteritinib 3, AraC 50, IDR 0.5 mg/kg
  AUC: 77.9 ng·h/mL
[3]; [9]
  Cmax: 204 ng/g
  Tmax: 4 h
[3]; [10]
  Cmax: 226 ng/g
  Tmax: 24 h
[3]
  concentration in tumor fraction versus plasma fraction: higher in the tumor fraction
